# Assay results as given in ChEMBL document CHEMBL1121661, “Synthesis and antitumor activity of a series of sulfone analogues of 1,4-naphthoquinone” (1981).
# Experiments:
# Assay type in all cases: functional
# Mus musculus [1] = assay: Effect on Ehrlich ascites carcinoma growth in CF1 mice at 10 mg/kg per day ip survival at day 9; 6/6; conditions: route intraperitoneal
# Mus musculus [2] = assay: Percent packed cell volume at 10 mg/kg per day
# Mus musculus [3] = assay: Percent packed cell volume at 10 mg/kg per day per mouse; set-up: unit not given here
# Mus musculus [4] = assay: Percent inhibition of Ehrlich ascites carcinoma growth at 10 mg/kg per day
# Mus musculus [5] = assay: Effect on P-388 lymphocytic leukemia growth at a given dose 10 mg/kg per day ip expressed as ratio of treated / control (T/C>125 is required for significant activity); conditions: route intraperitoneal
# Mus musculus [6] = assay: Effect on P-388 lymphocytic leukemia growth at a given dose 10 mg/kg per day ip expressed as average survival days of treated mice; conditions: route intraperitoneal
# Mus musculus [7] = assay: Effect on Ehrlich ascites carcinoma growth in CF1 mice at 10 mg/kg per day ip survival at day 9; 8/8; conditions: route intraperitoneal
# Mus musculus [8] = assay: Effect of compound on P-388 lymphocytic leukemia growth at a given dose 10 mg/kg per day ip expressed as ratio of treated / control; conditions: route intraperitoneal
# Mus musculus [9] = assay: Percent inhibition of Ehrlich ascites carcinoma growth at 5 (mg/kg)/day
# Mus musculus [10] = assay: Effect of compound on Ehrlich ascites carcinoma growth in CF1 mice at 10 mg/kg per day ip survival at day 9; 3/8; conditions: route intraperitoneal
# Mus musculus [11] = assay: Percent packed cell volume at 5 (mg/kg)/day
# Mus musculus [12] = assay: Percent packed cell volume at 5 (mg/kg)/day per mouse
# Mus musculus [13] = assay: Effect of compound on Ehrlich ascites carcinoma growth in CF1 mice at 5 mg/kg per day ip survival at day 9; 5/6; conditions: route intraperitoneal
# Mus musculus [14] = assay: Effect of compound on P-388 lymphocytic leukemia growth at a given dose 15 mg/kg per day ip expressed as ratio of treated / control; conditions: route intraperitoneal
# Mus musculus [15] = assay: Effect of compound on P-388 lymphocytic leukemia growth at a given dose 15 mg/kg per dayip expressed as average survival days of treated mice
# Mus musculus [16] = assay: Effect of compound on P-388 lymphocytic leukemia growth at a given dose 12.50 mg/kg per day ip expressed as ratio of treated / control (T/C>125 is required for significant activity); conditions: route intraperitoneal
# Mus musculus [17] = assay: Effect of compound on P-388 lymphocytic leukemia growth at a given dose 2.5 mg/kg per day ip expressed as average survival days of treated mice; conditions: route intraperitoneal
# Mus musculus [18] = assay: Effect of compound on P-388 lymphocytic leukemia growth at a given dose 4 mg/kg per day ip expressed as average survival days of treated mice; conditions: route intraperitoneal
# Mus musculus [19] = assay: Effect of compound on P-388 lymphocytic leukemia growth at a given dose 25 mg/kg per day ip expressed as ratio of treated / control (T/C>125 is required for significant activity); conditions: route intraperitoneal
# Mus musculus [20] = assay: Effect of compound on P-388 lymphocytic leukemia growth at a given dose 6.25 mg/kg per day ip expressed as ratio of treated / control (T/C>125 is required for significant activity); conditions: route intraperitoneal
# Mus musculus [21] = assay: Effect of compound on P-388 lymphocytic leukemia growth at a given dose 5 mg/kg per day ip expressed as average survival days of treated mice; conditions: route intraperitoneal
# Mus musculus [22] = assay: Effect of compound on P-388 lymphocytic leukemia growth at a given dose 15 mg/kg per day ip expressed as average survival days of treated mice; conditions: route intraperitoneal
# Mus musculus [23] = assay: Effect of compound on P-388 lymphocytic leukemia growth at a given dose 15 mg/kg per day ip expressed as ratio of treated / control (T/C>125 is required for significant activity); conditions: route intraperitoneal
# Mus musculus [24] = assay: Effect of compound on Ehrlich ascites carcinoma growth in CF1 mice at a dose ((20 mg/kg)/day) ip survival at day 9 packed cell volume as a percent
# Mus musculus [25] = assay: Effect of compound on Ehrlich ascites carcinoma growth in CF1 mice at a dose ((20 mg/kg)/day) ip survival at day 9 packed cell volume
# Mus musculus [26] = assay: Effect of compound on Ehrlich ascites carcinoma growth in CF1 mice at 20 mg/kg per day ip survival at day 9; 8/8; conditions: route intraperitoneal
# Mus musculus [27] = assay: Effect of compound on P-388 lymphocytic leukemia growth at a given dose 5 mg/kg per day ip expressed as ratio of treated / control (T/C>125 is required for significant activity); conditions: route intraperitoneal
# Mus musculus [28] = assay: Effect of compound on P-388 lymphocytic leukemia growth at a given dose 10 mg/kg per day ip expressed as ratio of treated / control (T/C>125 is required for significant activity); conditions: route intraperitoneal
# Mus musculus [29] = assay: Percent inhibition of Ehrlich ascites carcinoma growth at 200 mg/kg per day
# Mus musculus [30] = assay: Effect of compound on Ehrlich ascites carcinoma growth in CF1 mice at 200 mg/kg per day ip survival at day 9; 6/6; conditions: route intraperitoneal
# Mus musculus [31] = assay: Percent packed cell volume at 200 mg/kg per day per mouse
# Mus musculus [32] = assay: Percent packed cell volume at 200 mg/kg per day
# Mus musculus [33] = assay: Effect of compound on P-388 lymphocytic leukemia growth at a given dose 25 mg/kg per day ip expressed as average survival days of treated mice; conditions: route intraperitoneal
Structure (SMILES),Survivors at day 9 (Mus musculus [1]),% (Mus musculus [2]),Volume (Mus musculus [3]),inhibition in vivo at 10 mg/kg/day (Mus musculus [4]),Days (Mus musculus [6]),Survivors at day 9 (Mus musculus [7]),other results
CCC(=O)OCC1=CS(=O)(=O)c2ccccc2C1=O,6,0.07,0.23,99.5%,,,
COCC1=CS(=O)(=O)c2ccccc2C1=O,,0.1,0.1,99.9%,12,8,T/C (Mus musculus [5]): 126
O=C1C(Br)=C(c2ccccc2)S(=O)(=O)c2ccccc21,,30.6,4.06,0.4%,11.4,8,T/C (Mus musculus [8]): 120
O=C1C(CNc2ccccc2)=CS(=O)(=O)c2ccccc21,,40.2,2.8,0%,,8,
Cc1sc2ccccc2c(=O)c1CBr,,42.7,2.1,25.8%,11.4,8,T/C (Mus musculus [5]): 120
CCCOCC1=CS(=O)(=O)c2ccccc2C1=O,6,0.19,0.12,99.9%,,,
O=C1C(CO)=CS(=O)(=O)c2ccccc21,,0.7,0.4,99.3%,,,Inhibition (Mus musculus [9]): 95.6%; Survivors at day 9 (Mus musculus [10]): 3; % (Mus musculus [11]): 4.8; Volume (Mus musculus [12]): 0.07; Survivors at day 9 (Mus musculus [13]): 5
O=COCC1=CS(=O)(=O)c2ccccc2C1=O,6,4.23,0.57,91.6%,,,
O=C1C(COCCBr)=CS(=O)(=O)c2ccccc21,,0,0.05,100%,,8,
O=C1C(CI)=CS(=O)(=O)c2ccccc21,6,9.57,0.15,98%,,,
O=C1C(CN(CCCl)CCCl)=CS(=O)(=O)c2ccccc21,6,2,0.01,99.9%,,,
O=C1C(Br)=CS(=O)(=O)c2ccccc21,,38.3,0.99,69.9%,12.4,8,T/C (Mus musculus [14]): 99; Days (Mus musculus [15]): 9.4; T/C (Mus musculus [8]): 130
O=C1C(CCl)=C(CCl)C(=O)c2ccccc21,,5,0.31,98.8%,12.2,8,T/C (Mus musculus [5]): 128
O=C1C(CBr)=CS(=O)(=O)c2ccccc21,,8.63,0.35,92.8%,10,8,T/C (Mus musculus [5]): 105
CC(=O)OCC1=CS(=O)(=O)c2ccccc2C1=O,,2,0.33,99.5%,6.6,8,T/C (Mus musculus [16]): 118; Days (Mus musculus [17]): 10.2; T/C (Mus musculus [5]): 69; Days (Mus musculus [18]): 11.3; T/C (Mus musculus [19]): 122; T/C (Mus musculus [20]): 107; Days (Mus musculus [21]): 11.6
O=c1cc[s+]([O-])c2ccccc12 (centres undefined),6,27.8,0.27,89.6%,,,
CC1=C(Br)C(=O)c2ccccc2S1(=O)=O,,34.3,2.82,22.8%,,8,Days (Mus musculus [22]): 10.2; T/C (Mus musculus [23]): 107
O=C1C(CN2CCOCC2)=CS(=O)(=O)c2ccccc21,,43.3,1.25,0%,,8,
O=C1C(COCCCl)=CS(=O)(=O)c2ccccc21,6,7.93,0.07,98.1%,,,
O=C(OCC1=CS(=O)(=O)c2ccccc2C1=O)c1ccccc1,,33.7,2.7,0%,,8,
O=C1C(CBr)=C(CBr)S(=O)(=O)c2ccccc21,,37.2,0.76,53.9%,10.3,8,% (Mus musculus [24]): 25.2; Inhibition (Mus musculus [24]): 69.9%; T/C (Mus musculus [5]): 108; Volume (Mus musculus [25]): 0.99; Survivors at day 9 (Mus musculus [26]): 8
CCNC(=O)OCC1=CS(=O)(=O)c2ccccc2C1=O,6,1.33,0.38,99.3%,,,
O=C1c2ccccc2S(=O)(=O)CC1CCl (centres undefined),,43.5,1.84,36.3%,,8,Days (Mus musculus [22]): 10; T/C (Mus musculus [23]): 105
CC(C)OCC1=CS(=O)(=O)c2ccccc2C1=O,6,3.19,0.28,99.2%,11.6,,T/C (Mus musculus [5]): 122
COCCOCC1=CS(=O)(=O)c2ccccc2C1=O,6,8.2,0.07,98.2%,,,
O=C1C=CS(=O)(=O)c2ccccc21,,42.6,2.78,5.5%,11.4,8,T/C (Mus musculus [5]): 120
CCOCC1=CS(=O)(=O)c2ccccc2C1=O,,17.8,0.54,92.4%,12.2,8,Days (Mus musculus [22]): 9.6; T/C (Mus musculus [23]): 101; T/C (Mus musculus [27]): 109; T/C (Mus musculus [28]): 128; Days (Mus musculus [21]): 10.4
Sc1ncnc2nc[nH]c12 [MERCAPTOPURINE ANHYDROUS],,,,,,,inhibition in vivo at 200 mg/kg/day (Mus musculus [29]): 99.6%; Survivors at day 9 (Mus musculus [30]): 6; Volume (Mus musculus [31]): 0.7; % (Mus musculus [32]): 0.3
O=C1C(COC(=O)N(C(=O)Nc2ccccc2)c2ccccc2)=CS(=O)(=O)c2ccccc21,6,38,0.58,69.3%,,,
O=c1[nH]cc(F)c(=O)[nH]1 [FLUOROURACIL],,,,,,,T/C (Mus musculus [19]): 186; Days (Mus musculus [33]): 17.6
